Results taken from patent US20220175761A1, “BI-LIGAND DRUG CONJUGATE AND USE THEREOF” (COHERENT BIOPHARMA (SUZHOU), LIMITED, priority 2019, published 2022).
Numbered stars: 1 amine (or outer) side, 2 acyl side, 3 side chain; on linkers, the order of the positions; unused ones are H or OH. Bridge positions count the residues as written; N and C are the ends. Square brackets hold non-standard residues; d marks the D form. Peptide text beside a SMILES is read from it. I, II: the chains in the order shown. * marks the point of attachment. ξ: configuration not given here. X5 = CCc1c2c(nc3ccc(O)cc13)-c1cc3c(c(=O)n1C2)COC(=O)[C@@]3(CC)OC(=O)OCc1ccc(NC(=O)COCC(=O)*)cc1; Hexanoyl(6-succinimido-3yl) = O=C1CC([*:1])C(=O)N1CCCCCC(=O)[*:2]; X4 = O=C([C@H](Cc1cnnn1CCOCCOCCOCCOCCOCCN[*:3])N[*:1])[*:2]; EuK = O=C(O)CC[C@H](NC(=O)N[C@@H](CCCCN*)C(=O)O)C(=O)O; Pteroyl = Nc1nc2ncc(CNc3ccc(C(=O)*)cc3)nc2c(=O)[nH]1; Dolaproine = CO[C@@H]([C@@H]1CCCN1)[C@@H](C)C(=O)O; Dil = CC[C@H](C)[C@H](NC)[C@@H](CC(=O)O)OC; γGlu = O=C(O)[C@H](CCC(=O)[*:2])N[*:1]; PABC = O=C(OCc1ccc(N[*:1])cc1)[*:2]; X1 = C[C@@H](N*)[C@@H](O)c1ccccc1; X2 = O=C(Cc1ccc(CN[*:1])cc1)[*:2]; PEG4 = NCCOCCOCCOCCOCCC(=O)O; NMeV = CN[C@H](C(=O)O)C(C)C; ξCit = NC(=O)NCCCC(N)C(=O)O; CO = O=C([*:1])[*:2]; ξV = CC(C)C(N)C(=O)O; Butyryl = CCCC(=O)*; Ahx = NCCCCCC(=O)O

Legend:
[1] = test system: KB, LNCaP, T-47D, RT4 and NCI-H460 tumor cell lines; assay: Inhibition of tumor cell expansion, CCK8 (CB-50S); assay type: cell-based, human
Procedure: Cell lines: KB human oral epidermoid carcinoma cells, NCI-H460 human lung cancer cells, RT4 human bladder cancer cells, T-47D human breast cancer cells and LNCaP human prostate cancer cells
The cells were prepared in advance, digested with trypsin, collected and counted; with a complete cell culture medium, KB cells were diluted to 3.5×10^4 cells/ml, LNCaP cells were diluted to 8.0×10^4 cells/ml, T-47D cells were diluted to 1.2×10^4 cells/ml, NCI-H460 cells were diluted to 2.5×10^4 cells/ml, and RT4 cells were diluted to 1.2×10^5 cells/ml; to each well of 96-well plates, 100 μl of the diluted cell solution was added; and negative control and blank control wells were set on each plate. The 96-well plates added with the cells were placed in an incubator at 37° C., 5% CO2 for culturing overnight.
The samples were diluted with a culture medium to desired concentrations (see Table 16). […]
To each well, 15 μl (10% of the liquid volume in a well) of a color developing solution from CCK-8 was added; the plates were incubated at 37° C. for an appropriate time (try to keep the OD value in the range of 1.0-2.0); the covers of the 96-well plates were removed, and the plates were read at 450 nm on a microplate reader (Molecular Devices Spectra MAX Plus). […]

[2] = test system: PANC-1 (human pancreatic cancer cells); assay: Inhibition of cell line proliferation, CCK8; assay type: cell-based
Procedure: (§1) Experimental operations: PANC-1 and CFPAC-1 cells were prepared in advance, counted, and plated in 96-well cell culture plates at a cell density of 4×10^4 cells/ml (100 μl/well); negative control and blank control wells were set on each plate. After adherent cell culture overnight, the diluted samples to be tested were added at 50 μl/well. The plates were placed in an incubator at 37° C., 5% CO2 and cultured for 68-72 hours. To each well, 15 μl (10% of the liquid volume in a well) of a color developing solution from CCK8 was added; and the plates were incubated at 37° C. for 45-70 minutes and each plate was read at 450 nm on a microplate reader. The data was edited using SoftMax Pro and a 4-P fitting curve was plotted.
(§2) Experimental operations: LNCaP, SK-BR-3, NCI-H226, CFPAC-1 and PANC-1 cells were prepared in advance and counted; with a culture medium (IMDM+10% FBS+1× L-Glutamine+1×P/S), the cells LNCaP, SK-BR-3 and CFPAC-1 were diluted to 4×10^4 cells/ml, NCI-H226 was diluted to 2.0×10^4 cells/ml and PANC-1 was diluted to 3.0×10^4 cells/ml; the diluted cell solution was plated in 96-well plates at 100 μl/well; and negative control and blank control wells were set on each plate. After adherent cell culture overnight, the diluted samples to be tested were added at 50 μl/well. The plates were placed in an incubator at 37° C., 5% CO2 and cultured for 68-72 hours. To each well, 15 μl (10% of the liquid volume in a well) of a color developing solution from CCK8 was added; and the plates were incubated at 37° C. for 45-70 minutes and each plate was read at 450 nm on a microplate reader. The data was edited using SoftMax Pro and a 4-P fitting curve was plotted.
as §2, with “Operations:” for “operations:”, “MDA-MB-468,” for “SK-BR-3, NCI-H226,”, “MDA-MB-468” for “SK-BR-3”, “cells/ml,” for “cells/ml, NCI-H226 was diluted to 2.0×10^4 cells/ml”

[3] = test system: LNCaP (human prostate cancer cells); assay: Inhibition of cell line proliferation, CCK8; assay type: cell-based; conditions: LNCaP
From the text: Since different cells have different sensitivity to a cell proliferation inhibitory toxicity of the payload in a ligand conjugate, the quantitative analysis may be interfered occasionally. A series of cell lines with known expression levels of receptors of different ligands were selected and tested for the response to inhibitory effects of the cell proliferation of a ligand conjugate and a single payload. The IC50 ratio of a single payload to that of a ligand conjugate in same cell line were taken to remove such interference.
as §1, with “LNCaP” for “PANC-1”, “22RV1” for “CFPAC-1”, “cells/ml and 2.0×10^4 cells/ml, respectively” for “cells/ml”, “plotted. […]” for “plotted.”

[4] = test system: SCLC-21H (small cell lung cancer cells); assay: Tumor growth inhibition in subcutaneous xenograft model (CDX); assay type: in vivo, BALB/c-nude mice; conditions: SCLC-21H CDX
Procedure: Main CDX models: HPAF-II (human pancreatic cancer cells), NCI-H226 (human lung cancer cells) and SCLC-21H (small cell lung cancer cells)
The cells or tumor tissue mass were prepared and subcutaneously inoculated into the anterior right flank of BALB/c-nude mice. When the tumor volume expanded to 80-160 mm^3, a randomized grouping was performed, and a model control group and administration groups were set. The mice were administrated from the first day of grouping, wherein the administration dose was adjusted according to the latest weight measurement. The mice were administrated via tail vein injection at an administration volume of 10 μl/g. After grouping and administration, the effects of tumor growth and treatment on normal behaviors of animals, specifically including the activity of experimental animals, food intake and drinking status, weight gain or loss status, and other abnormal conditions in eyes, hair, etc., were monitored. After grouping and administration, the weight of mice was measured twice a week to calculate the rate of weight change; at the same time, the long diameter and short diameter of the tumor were measured with a vernier caliper, and the tumor volume, relative tumor proliferation rate, tumor volume inhibition rate and other indicators were calculated. The formula of tumor volume is TV=0.5 a×b^2, wherein a is […] the long diameter of a tumor and b is the short diameter of a tumor.

[5] = test system: MDA-MB-468 (human breast cancer cells); assay: Inhibition of cell line proliferation, CCK8; assay type: cell-based
Procedure: (§3) Experimental Operations: LNCaP, SK-BR-3, MDA-MB-468 and CFPAC-1 cells were prepared in advance and counted; with a culture medium (IMDM+10% FBS+1× L-Glutamine+1×P/S), the cells LNCaP, SK-BR-3, MDA-MB-468 and CFPAC-1 were diluted to 4×10^4 cells/ml; the diluted cell solution was plated in 96-well plates at 100 µl/well; and negative control and blank control wells were set on each plate. After adherent cell culture overnight, the diluted samples to be tested were added at 50 μl/well. The plates were placed in an incubator at 37° C., 5% CO2 and cultured for 68-72 hours. To each well, 15 μl (10% of the liquid volume in a well) of a color developing solution from CCK8 was added; and the plates were incubated at 37° C. for 45-70 minutes and each plate was read at 450 nm on a microplate reader. The data was edited using SoftMax Pro and a 4-P fitting curve was plotted.
as §3, with “Operations: LNCaP, MDA-MB-468, CFPAC-1 and PANC-1” for “Operations: LNCaP, SK-BR-3, MDA-MB-468 and CFPAC-1”, “CFPAC-1 and PANC-1 cells were” for “MDA-MB-468 and CFPAC-1 cells were”, “cells LNCaP, MDA-MB-468 and” for “cells LNCaP, SK-BR-3, MDA-MB-468 and”, “to 4×10^4 cells/ml, and PANC-1 was diluted to 3.0×10^4 cells/ml; the” for “to 4×10^4 cells/ml; the”, “at 100 μl/well; and negative” for “at 100 µl/well; and negative”
Experimental operations: NCI-H226, CFPAC-1 and MDA-MB-468 cells were prepared in advance and counted; MDA-MB-468 and CFPAC-1 cells were plated at a density of 2×10^4 cells/ml (100 μl/well) and NCI-H226 cells were plated at a density of 1×10^4 cells/ml (100 μl/well) in 96-well plates; and negative control and blank control wells were set on each plate. After adherent cell culture overnight, the diluted samples to be tested were added at 50 μl/well. The plates were placed in an incubator at 37° C., 5% CO2 and cultured for 68-72 hours. To each well, 15 μl (10% of the liquid volume in a well) of a color developing solution from CCK8 was added; and the plates were incubated at 37° C. for 45-70 minutes and each plate was read at 450 nm on a microplate reader. The data was edited using SoftMax Pro and a 4-P fitting curve was plotted.

[6] = test system: CFPAC-1 (human pancreatic cancer cells); assay: Inhibition of cell line proliferation, CCK8; assay type: cell-based
Procedure: as §1, §2, §3
as §3, with “Operations: LNCaP, MDA-MB-468, CFPAC-1 and PANC-1” for “Operations: LNCaP, SK-BR-3, MDA-MB-468 and CFPAC-1”, “CFPAC-1 and PANC-1 cells were” for “MDA-MB-468 and CFPAC-1 cells were”, “cells LNCaP, MDA-MB-468 and” for “cells LNCaP, SK-BR-3, MDA-MB-468 and”, “to 4×10^4 cells/ml, and PANC-1 was diluted to 3.0×10^4 cells/ml; the” for “to 4×10^4 cells/ml; the”, “at 100 μl/well; and negative” for “at 100 µl/well; and negative”
Experimental operations: NCI-H226, CFPAC-1 and MDA-MB-468 cells were prepared in advance and counted; MDA-MB-468 and CFPAC-1 cells were plated at a density of 2×10^4 cells/ml (100 μl/well) and NCI-H226 cells were plated at a density of 1×10^4 cells/ml (100 μl/well) in 96-well plates; and negative control and blank control wells were set on each plate. After adherent cell culture overnight, the diluted samples to be tested were added at 50 μl/well. The plates were placed in an incubator at 37° C., 5% CO2 and cultured for 68-72 hours. […]

Row | Structure (SMILES) | inhibitory effect on growth and expansion of tumor cell lines ([1]; 72 hours, CCK-8) | IC50 compared between cell lines ([1]; KB, LNcap, T-47D and RT4 versus NCI-H460) | IC50 (MMAE)/IC50 (conjugate) ([2]; PANC-1) | IC50 ([2]; PANC-1, 68-72 hours, CCK8) [nM] | IC50 ratio (MMAE/conjugate) [3] | IC50 ([3]; 68-72 hours, CCK8) [nM] | anti-tumor growth effect (in words) [4] | IC50 (MMAE)/IC50 (conjugate) ([5]; MDA-MB-468) | IC50 ([5]; MDA-MB-468, 68-72 hours, CCK8) [nM] | IC50 (MMAE)/IC50 (conjugate) ([6]; CFPAC-1) | IC50 ([6]; CFPAC-1, 68-72 hours, CCK8) [nM]
1 | CCc1c2c(nc3ccc(O)cc13)-c1cc3c(c(=O)n1C2)COC(=O)[C@@]3(CC)OC(=O)OCc1ccc(NC(=O)COCC(=O)NCCOCCOCCOCCOCCOCCn2nncc2C[C@H](NC(=O)CC[C@H](NC(=O)c2ccc(NCc3cnc4[nH]c(N)nc(=O)c4n3)cc2)C(=O)O)C(=O)N[C@@H](CCCCN)C(=O)N[C@@H](CCC(=O)O)C(=O)N[C@@H](Cc2ccccc2)C(=O)N[C@@H](CC(C)C)C(=O)N[C@@H](Cc2cnc[nH]2)C(=O)N2CCC[C@H]2C(=O)N[C@@H](CO)C(=O)N[C@@H](CCCCN)C(=O)NC(C(=O)N[C@@H](CC(=O)O)C(=O)N[C@@H](CC(C)C)C(=O)N2CCC[C@H]2C(=O)N[C@@H](CCCNC(=N)N)C(=O)O)C(C)C)cc1 (some centres unmarked) [CB-50S] ({Pteroyl-γGlu}-[X4](X5)KEFLHPSK[ξV]DLPR-OH) | has an inhibitory effect | significantly lower | – | – | – | – | – | – | – | – | –
2 | CCCC(=O)N[C@@H](Cc1ccccc1)C(=O)N[C@H]1CSSC[C@@H](C(=O)N[C@H](C(=O)N[C@@H](CCCCNC(=O)[C@H](CCC(=O)O)NC(=O)CCOCCOCCOCCOCCNC(=O)[C@H](CCC(=O)O)NC(=O)[C@H](CSC2CC(=O)N(CCCCCC(=O)N[C@H](C(=O)NC(CCCNC(N)=O)C(=O)Nc3ccc(COC(=O)N(C)[C@H](C(=O)N[C@H](C(=O)N(C)[C@@H]([C@@H](C)CC)[C@@H](CC(=O)N4CCC[C@H]4[C@H](OC)[C@@H](C)C(=O)N[C@H](C)[C@@H](O)c4ccccc4)OC)C(C)C)C(C)C)cc3)C(C)C)C2=O)NC(=O)CCCCCNC(=O)[C@H](CCCCN)NC(=O)[C@H](CC(=O)O)NC(=O)[C@H](CC(=O)O)NC(=O)Cc2ccc(CNC(=O)NCCCC[C@H](NC(=O)N[C@@H](CCC(=O)O)C(=O)O)C(=O)O)cc2)C(N)=O)[C@@H](C)O)NC(=O)[C@H]([C@@H](C)O)NC(=O)[C@H](CCCCN)NC(=O)[C@H](Cc2c[nH]c3ccccc23)NC(=O)[C@H](Cc2ccc(O)cc2)NC1=O (some centres unmarked) [CB-1820] (I: Butyryl-FCYWKTCTK-NH2 / II: {EuK-CO}-[X2]DDK[Ahx]CE[PEG4]E / III: V[ξCit][PABC][NMeV]V[Dil][Dolaproine]-X1; disulfide I:2-I:7; amide I:9-II:C; linker II:6-III:N via Hexanoyl(6-succinimido-3yl)) | – | – | 0.0364 | 55 | 0.1429 | 21 | obvious anti-tumor growth effect | 0.0323 | 62 | 0.0421 | 356
